The results in this text go back to PubChem BioAssay (NCI).

Several values for one entry are separate records, joined by “and”; a condition that tells them apart may be missing. Equal values may be shown once.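 The compound was tested at five concentrations on cells cultured in 96-well plates, with a 48-hour exposure period. GI50 marks 50% less growth. Definition used: TGI = concentration required for complete inhibition of growth.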 Where only a bound is given, the exact number is not on record here.

Among the test systems are MDA-MB-231 breast; NCI-H226 lung; BT-549 breast; OVCAR-4 ovarian; M14 melanoma; SF-539 CNS; SNB-75 CNS; HCC-2998 colon; RPMI-8226 leukemia; UACC-62 melanoma.
Common to all, as to test: NCI anticancer screen, dose series, 48 h

Take `Cn1cc(C2=C(c3cn(C)c4c(N)cccc34)C(=O)NC2=O)c2ccccc21`: the GI50 in the experiment with MDA-MB-231 breast is 4.63 µM; in the experiment with NCI-H226 lung it was 3.28 µM; in the experiment with BT-549 breast, 1.01 µM; in the experiment with OVCAR-4 ovarian it was 8.3 µM; in the experiment on M14 melanoma, 2.15 µM; in the experiment on SF-539 CNS, 0.59 µM. Besides, the GI50 with SNB-75 CNS is 0.352 µM; in the experiment on HCC-2998 colon, 6.01 µM; in the experiment with RPMI-8226 leukemia, 2.44 µM; in the experiment with UACC-62 melanoma, 2.48 µM. In addition, the TGI with MDA-MB-231 breast is 20.8 µM; in the experiment on NCI-H226 lung, > 22.1 µM; with BT-549 breast it was 6.66 µM; in the experiment on OVCAR-4 ovarian, > 23.6 µM; in the experiment with M14 melanoma, > 25 µM; in the experiment with SF-539 CNS it was 1.98 µM. In addition, the TGI is 2.63 µM in the experiment with SNB-75 CNS, > 25 µM with HCC-2998 colon, 12.5 µM in the experiment with RPMI-8226 leukemia and 18.1 µM in the experiment on UACC-62 melanoma.

For `C[C@]12CC[C@@H]3c4ccc(O)cc4C[C@@H](CCCCCCCCCS(=O)CCCC(F)(F)C(F)(F)F)[C@H]3[C@@H]1CC[C@@H]2O` (stereo partly specified), the GI50 in the experiment with MDA-MB-231 breast was > 100 µM; with NCI-H226 lung it was > 100 µM; in the experiment on BT-549 breast it was > 49.9 µM; with OVCAR-4 ovarian it was > 100 µM; in the experiment on M14 melanoma, > 100 µM; in the experiment on SF-539 CNS, > 100 µM. Besides, the GI50 with SNB-75 CNS was > 100 µM; with HCC-2998 colon, > 100 µM; with RPMI-8226 leukemia, 2.35 µM; in the experiment on UACC-62 melanoma, > 100 µM. Moreover, the TGI with MDA-MB-231 breast, in the experiment with NCI-H226 lung, in the experiment with BT-549 breast, with OVCAR-4 ovarian, in the experiment with M14 melanoma and with SF-539 CNS was > 100 µM in each case. Also, the TGI in the experiment with SNB-75 CNS, with HCC-2998 colon, in the experiment on RPMI-8226 leukemia and with UACC-62 melanoma was > 100 µM in each case.

Turning to `COc1cccc(NCc2nnc(Nc3ccc(Cl)cc3)c3ccccc23)c1`, the GI50 with MDA-MB-231 breast is 1.32 µM; in the experiment with NCI-H226 lung, 0.956 µM; in the experiment with BT-549 breast it was 1.9 µM; in the experiment with OVCAR-4 ovarian, 1.33 µM; with M14 melanoma, 0.85 µM; in the experiment with SF-539 CNS, 3.07 µM. Moreover, the GI50 with SNB-75 CNS was 0.293 µM; in the experiment on HCC-2998 colon, 3.44 µM; in the experiment on RPMI-8226 leukemia, 1.48 µM; in the experiment on UACC-62 melanoma, 1 µM. Further, the TGI is 6.32 µM in the experiment with MDA-MB-231 breast; 6.82 µM in the experiment on NCI-H226 lung; 7.42 µM with BT-549 breast; 17.6 µM in the experiment on OVCAR-4 ovarian; 4.69 µM in the experiment with M14 melanoma; 6.56 µM in the experiment with SF-539 CNS. The TGI with SNB-75 CNS is 5.27 µM; in the experiment on HCC-2998 colon it was 8.79 µM; with RPMI-8226 leukemia, 7.51 µM; with UACC-62 melanoma, 5.76 µM.

Take `Cc1[nH]c(N=Nc2ccccc2)nc1N=Nc1ccccc1`: the GI50 is 5.25 µM with MDA-MB-231 breast; 2.7 µM in the experiment with NCI-H226 lung; 2.08 µM in the experiment with BT-549 breast; 3.06 µM in the experiment on OVCAR-4 ovarian; 2 µM in the experiment with M14 melanoma; 2.6 µM in the experiment on SF-539 CNS. The GI50 in the experiment on SNB-75 CNS is 1.66 µM; in the experiment on HCC-2998 colon, 4.2 µM; in the experiment with RPMI-8226 leukemia, 1.17 µM; in the experiment with UACC-62 melanoma it was 1.83 µM. In addition, the TGI in the experiment on MDA-MB-231 breast is > 45.4 µM; in the experiment with NCI-H226 lung, 12.4 µM; in the experiment with BT-549 breast, 8.11 µM; in the experiment with OVCAR-4 ovarian, 55.4 µM; with M14 melanoma, 4.49 µM; with SF-539 CNS, 6.93 µM. Further, the TGI was determined as 12.5 µM with SNB-75 CNS, 29.6 µM in the experiment with HCC-2998 colon, 8.38 µM in the experiment with RPMI-8226 leukemia and 4.34 µM with UACC-62 melanoma.

Consider `CCCCCCCCCCC(O)C1CCC(C2CCC(C(O)CCCCC(O)CCCCCC(O)CC3=CC(C)OC3=O)O2)O1` (stereo unspecified), for which the GI50 with MDA-MB-231 breast was 4.82 µM; in the experiment on NCI-H226 lung, > 25 µM; with M14 melanoma, 3.76 µM; with SNB-75 CNS, > 25 µM; in the experiment on RPMI-8226 leukemia it was 2 µM; in the experiment with UACC-62 melanoma, > 25 µM. The TGI with MDA-MB-231 breast, in the experiment on NCI-H226 lung, in the experiment with BT-549 breast, in the experiment on OVCAR-4 ovarian, in the experiment on M14 melanoma and in the experiment with SF-539 CNS was > 25 µM each time. The TGI with SNB-75 CNS is > 25 µM; in the experiment on HCC-2998 colon, > 25 µM; in the experiment with RPMI-8226 leukemia, > 25 µM; in the experiment on UACC-62 melanoma, 9.08 µM and > 25 µM.

As to `CN1C(NC(=O)c2ccc(Cl)nc2)=NS(=O)(=O)c2cc(Cl)ccc21`, the GI50 in the experiment with MDA-MB-231 breast, in the experiment on NCI-H226 lung, in the experiment on BT-549 breast, with OVCAR-4 ovarian, in the experiment on M14 melanoma and in the experiment on SF-539 CNS was > 100 µM throughout. For the same compound, the GI50 in the experiment with SNB-75 CNS, in the experiment on HCC-2998 colon, with RPMI-8226 leukemia and with UACC-62 melanoma was > 100 µM throughout. The TGI with MDA-MB-231 breast, with NCI-H226 lung, in the experiment on BT-549 breast, in the experiment with OVCAR-4 ovarian, in the experiment on M14 melanoma and with SF-539 CNS was > 100 µM in each case. For the same compound, the TGI in the experiment with SNB-75 CNS, in the experiment on HCC-2998 colon, with RPMI-8226 leukemia and in the experiment with UACC-62 melanoma was > 100 µM throughout.

Consider `COc1cc2c(/C=C3/C(=O)Nc4cccc(Cl)c43)c(Cl)n(Cc3ccccc3)c2cc1C`, for which the GI50 was 3.38 µM in the experiment with MDA-MB-231 breast; 1.78 µM with NCI-H226 lung; 6.98 µM in the experiment on BT-549 breast; 7.73 µM in the experiment with OVCAR-4 ovarian; 4.79 µM in the experiment on M14 melanoma; 3.78 µM in the experiment on SF-539 CNS. Moreover, the GI50 was 21.1 µM in the experiment with SNB-75 CNS, 3.1 µM in the experiment on HCC-2998 colon, 4.21 µM in the experiment on RPMI-8226 leukemia and 1.67 µM with UACC-62 melanoma. Moreover, the TGI with MDA-MB-231 breast is 24.4 µM; with NCI-H226 lung, 11.1 µM; in the experiment on BT-549 breast, 29.1 µM; in the experiment on OVCAR-4 ovarian it was > 100 µM; in the experiment on M14 melanoma, > 40.5 µM; in the experiment on SF-539 CNS, > 100 µM. For the same compound, the TGI in the experiment on SNB-75 CNS was > 100 µM; in the experiment with HCC-2998 colon it was 8.99 µM; in the experiment on RPMI-8226 leukemia, > 23.6 µM; in the experiment with UACC-62 melanoma, 24.1 µM.
